From patent US20240368163A1, “COMPOUNDS AND METHODS FOR MODULATING SPLICING” (REMIX THERAPEUTICS INC., priority 2021, published 2024)

Test system: MDCK-BCRP or MDCKII-MDR1 cells
Test: Transwell assay for membrane efflux and permeability
Type: in vitro ADME, Canine
Conditions: test compound 1 μM, 2 hours at 37° C.
How it was run: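 Transport measured over 2 h at 37 °C with compounds at 1 μM final in HBSS containing 0.5% DMSO. Monolayers of BCRP-expressing MDCK or MDR1-expressing MDCKII cells were cultured 4-8 days, then HBSS-washed and equilibrated 30 min at 37 °C before dosing.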

Row | SMILES | Permeability (Papp) | Efflux Ratio
1 | Fc1cc(-c2ccc(OC3CC4CC(F)(F)C(C3)N4)nn2)c2[nH]ncc2c1-c1cn[nH]c1 (stereo not drawn) [Compound 313, 7-[6-({6,6-difluoro-8-azabicyclo[3.2.1]octan-3-yl}oxy)pyridazin-3-yl]-5-fluoro-4-(1H-pyrazol-4-yl)-1H-indazole] | C (C represents a Papp greater than 6×10^−6 cm S^−1) | 
2 | CN(c1ccc(-c2ccc(-c3cn[nH]c3)c3ncsc23)nn1)[C@H]1C[C@H]2COC[C@@H](C1)N2 [Compound 356, (endo)-N-methyl-N-{6-[4-(1H-pyrazol-4-yl)-1,3-benzothiazol-7-yl]pyridazin-3-yl}-3-oxa-9-azabicyclo[3.3.1]nonan-7-amine] | A (A represents a Papp <2×10^−6 cm s^−1) | C (C represents a ratio greater than 5)
